The source of these data is patent US6296785A, “Indeno-fused photochromic naphthopyrans” (PPG Industries Ohio, Inc., priority 2000, dated 2001).

Common to all, as to type: physicochemical
Data set [1] can be described thus: photochromic response of test squares on an optical bench (sensitivity, saturation optical density, bleach rate). As to conditions: for ΔOD @ Saturation (Band A) / ΔOD @ Saturation (Band B): UV exposure 15 minutes; for ΔOD @ Saturation (Band A) / Sensitivity ΔOD/MIN (Band A) / ΔOD @ Saturation (Band B) / Sensitivity ΔOD/MIN (Band B): 72° F. (22.2° C.), polymer test square; for Sensitivity ΔOD/MIN (Band A) / Sensitivity ΔOD/MIN (Band B): first five (5) seconds of UV exposure, expressed per minute; for Bleach Rate T 1/2: measured at band B, room temperature (72° F., 22.2° C.) after removal of activating light. The protocol: (§1) Testing was done with the photochromic compounds described in Examples 1 through 20 and Comparative Examples 1 through 3 in the following manner. A quantity of photochromic compound calculated to yield a 1.5×10^-3 molal solution was added to a flask containing 50 grams of a monomer blend of 4 parts ethoxylated bisphenol A dimethacrylate (BPA 2EO DMA), 1 part poly(ethylene glycol) 600 dimethacrylate, and 0.033 weight percent 2,2'-azobis(2-methyl propionitrile) (AIBN). The photochromic compound was dissolved into the monomer blend by stirring and gentle heating, if necessary. After a clear solution was obtained, it was poured into a flat sheet mold having the interior dimensions of 2.2 mm×6 inches (15.24 cm)×6 inches (15.24 cm). The mold was sealed and placed in a horizontal air flow, programmable oven programmed to increase the temperature from 40° C. to 95° C. over a 5 hour interval, hold the temperature at 95° C. for 3 hours, lower it to 60° C. over a 2 hour interval and then hold it at 60° C. for 16 hours. After the mold was opened, the polymer sheet was cut using a diamond blade saw into 2 inch (5.1 centimeters) test squares.
(§2) The photochromic test squares of Part A were tested for photochromic response rates on an optical bench. Prior to testing on the optical bench, the photochromic test squares were exposed to 365 nanometer ultraviolet light for about 15 minutes to activate the photochromic compounds and then placed into a 76° C. oven for about 15 minutes to bleach the photochromic compounds. The test squares were then cooled to room temperature, exposed to fluorescent room lighting for at least 2 hours and then kept covered for at least 2 hours prior to testing on an optical bench maintained at 72° F. (22.2° C.). The bench was fitted with a 250 watt Xenon arc lamp, a remote controlled shutter, a copper sulfate bath acting as a heat sink for the arc lamp, a Schott WG-320 nm cut-off filter which removes short wavelength radiation; neutral density filter(s) and a sample holder in which the square to be tested was inserted. The power output of the optical bench, i.e., the dosage of light that the sample lens would be exposed to, was calibrated with a photochromic test square used as a reference standard. […] The UV-A detector was placed into the sample holder and the light output was measured. Adjustments to the power output were made by increasing or decreasing the lamp wattage or by adding or removing neutral density filters in the light path.
A monitoring, collimated beam of light from a tungsten lamp was passed through the square at a small angle (approximately 30°) normal to the square. After passing through the square, the light from the tungsten lamp was directed to a detector through Spectral Energy Corp. GM-200 monochromator set at the previously determined visible lambda max of the photochromic compound being measured. The output signals from the detector were processed by a radiometer.
Change in optical density (ΔOD) was determined by inserting a test square in the bleached state into the sample holder, adjusting the transmittance scale to 100%, opening the shutter from the Xenon lamp to provide ultraviolet radiation to change the test square from the bleached state to an activated (i.e., darkened) state, measuring the transmittance in the activated state, and calculating the change in optical density according to the formula: ΔOD=log(100/% Ta), where % Ta is the percent transmittance in the activated state and the logarithm is to the base 10.
The ΔOD/Min, which represents the sensitivity of the photochromic compound's response to UV light, was measured over the first five (5) seconds of UV exposure, then expressed on a per minute basis. The saturation optical density (ΔOD@ Saturation) was taken under identical conditions as the ΔOD/Min, except UV exposure was continued for 15 minutes. […]

The nature of data set [2]: lambda max (Vis) of activated photochromic test squares in a Varian Cary 3 uv-visible spectrophotometer. Particulars: activated form in test square. The protocol: as §1
The lambda max (Vis) is the wavelength in the visible spectrum at which the maximum absorption of the activated (colored) form of the photochromic compound in a test square occurs. The lambda max (Vis) wavelengths reported in Table 1 were determined by testing the photochromic test square polymerizates of Part A in a Varian Cary 3 uv-visible spectrophotometer. The bleach rate (T 1/2) is the time interval in seconds for the absorbance of the activated form of the photochromic compound in the test squares to read one half the highest absorbance at room temperature (72° F., 22.2° C.) after removal of the source of activating light.
For each lambda max visible, the corresponding optical density (Δ OD/Min and Δ OD at saturation) for the desired compounds of the Examples and Comparative Examples are tabulated in Table 1 for the two bands (A and B) of peak absorption for each compound. Table 1 also includes the bleach rate (T 1/2) for each of the compounds as measured at band B. The ratings of the Relative Δ OD at Saturation Test for the bands A and B of each of the Examples and Comparative Examples are calculated as follows: Δ OD at saturation (Band A)/Δ OD at saturation (Band B)×100.

Data set [3] in a line: Relative ΔOD at Saturation Test. As to conditions: ΔOD at saturation (Band A)/ΔOD at saturation (Band B)×100.
Source text: In accordance with the present invention, it has now been discovered that certain novel indeno[2,1-f]naphtho[1,2-b]pyrans having two absorption bands in the activated (colored) state, an acceptable fade rate, high activated intensity, a high coloration rate and a rating of 80 or higher in the Relative ΔOD at Saturation Test may be prepared. The Relative ΔOD at Saturation Test is described in Example 21. The ratings of the test are defined herein as the result obtained when the optical density of band "A" is divided by the optical density of band "B" and multiplied by 100. It is believed that compounds having a rating of 80 or higher are most valuable for formulating neutral grays, greens and browns for commercial photochromic ophthalmic eyeware.
as §1, §2
Change in optical density (ΔOD) was determined by inserting a test square in the bleached state into the sample holder, adjusting the transmittance scale to 100%, opening the shutter from the Xenon lamp to provide ultraviolet radiation to change the test square from the bleached state to an activated (i.e., darkened) state, measuring the transmittance in the activated state, and calculating the change in optical density according to the formula: ΔOD=log(100/% Ta), where % Ta is the percent transmittance in the activated state and the logarithm is to the base 10. […]

`CCC1(O)c2ccccc2-c2c1c1c(c3ccccc23)OC(c2ccc(OC)cc2)(c2ccc(OC)cc2)C=C1` (stereo not shown) [Comp. Ex. 1, 3,3-di(4-methoxyphenyl)-13-hydroxy-13-ethyl-3H-13H-indeno[2,1-f]naphtho[1,2-b]pyran, reference compound]: in data set [1], the “ΔOD @ Saturation (Band A)” value is reported as 0.16, the “Sensitivity ΔOD/MIN (Band A)” value is reported as 0.21 ΔOD/MIN, the “ΔOD @ Saturation (Band B)” value was determined as 0.27 and the “Sensitivity ΔOD/MIN (Band B)” value was 0.29 ΔOD/MIN. The “Bleach Rate T 1/2” value in data set [1] worked out at 0.783 min. Also, in data set [2], the “λ MAX Vis (Band A)” value is recorded as 437 nm and the “λ MAX Vis (Band B)” value is on record as 562 nm. In data set [3], the “Relative ΔOD at Saturation (rating)” value is listed as 59.
In the case of `CCC1(O)c2cc(OC)ccc2-c2c1c1c(c3cc(OC)ccc23)OC(c2ccc(OC)cc2)(c2ccc(OC)cc2)C=C1` (stereo not shown) [Comp. Ex. 2, 3,3-di(4-methoxyphenyl)-6,11-dimethoxy-13-hydroxy-13-ethyl-3H-13H-indeno[2,1-f]naphtho[1,2-b]pyran, reference compound], in data set [1], the “ΔOD @ Saturation (Band A)” value stood at 0.36, the “Sensitivity ΔOD/MIN (Band A)” value is reported as 0.22 ΔOD/MIN, the “ΔOD @ Saturation (Band B)” value turned out to be 0.51 and the “Sensitivity ΔOD/MIN (Band B)” value was 0.32 ΔOD/MIN. Besides, the “Bleach Rate T 1/2” value in data set [1] stood at 2.17 min. Also, in data set [2], the “λ MAX Vis (Band A)” value is reported as 499 nm and the “λ MAX Vis (Band B)” value worked out at 607 nm. Moreover, in data set [3], the “Relative ΔOD at Saturation (rating)” value was found to be 70.
Consider `CCC1(O)c2cc(OC)c(OC)cc2-c2c1c1c(c3ccccc23)OC(c2ccc(OC)cc2)(c2ccc(OC)cc2)C=C1` (stereo not shown) [Comp. Ex. 3, 3,3-di(4-methoxyphenyl)-10,11-dimethoxy-13-hydroxy-13-ethyl-3H-13H-indeno[2,1-f]naphtho[1,2-b]pyran, reference compound], for which, in data set [1], the “ΔOD @ Saturation (Band A)” value worked out at 0.34, the “Sensitivity ΔOD/MIN (Band A)” value was 0.32 ΔOD/MIN, the “ΔOD @ Saturation (Band B)” value is 0.48 and the “Sensitivity ΔOD/MIN (Band B)” value is on record as 0.48 ΔOD/MIN. Besides, the “Bleach Rate T 1/2” value in data set [1] was 1.27 min. Further, in data set [2], the “λ MAX Vis (Band A)” value came out at 445 nm and the “λ MAX Vis (Band B)” value is on record as 600 nm. Besides, in data set [3], the “Relative ΔOD at Saturation (rating)” value is on record as 71.
In the case of `COc1ccc(C2(c3ccc(OC)cc3)C=Cc3c4c(c5cc(OC)c(OC)cc5c3O2)-c2cc(OC)c(OC)cc2C4(C)C)cc1` [Example 1, 3,3-di(4-methoxyphenyl)-6,7,10,11-tetramethoxy-13,13-dimethyl-3H,13H-indeno[2,1-f]naphtho[1,2-b]pyran], in data set [1], the “ΔOD @ Saturation (Band A)” value is recorded as 0.99, the “Sensitivity ΔOD/MIN (Band A)” value is 0.33 ΔOD/MIN, the “ΔOD @ Saturation (Band B)” value is 0.79 and the “Sensitivity ΔOD/MIN (Band B)” value is recorded as 0.24 ΔOD/MIN. Further, the “Bleach Rate T 1/2” value in data set [1] was 8.77 min. Besides, in data set [2], the “λ MAX Vis (Band A)” value is 445 nm and the “λ MAX Vis (Band B)” value was 611 nm. Further, the “Relative ΔOD at Saturation (rating)” value in data set [3] is 125.
`COc1cc2c(cc1OC)C(C)(C)c1c3c(c4cc(OC)c(OC)cc4c1-2)OC(c1ccccc1)(c1ccc(N2CCOCC2)cc1)C=C3` (stereo not shown) [Example 2, 3-phenyl-3-(4-morpholinophenyl)-6,7,10,11-tetramethoxy-13,13-dimethyl-3H,13H-indeno[2,1-f]naphtho[1,2-b]pyran]: in data set [1], the “ΔOD @ Saturation (Band A)” value is 1.10, the “Sensitivity ΔOD/MIN (Band A)” value is reported as 0.32 ΔOD/MIN, the “ΔOD @ Saturation (Band B)” value is 1.07 and the “Sensitivity ΔOD/MIN (Band B)” value is 0.29 ΔOD/MIN. In addition, the “Bleach Rate T 1/2” value in data set [1] was found to be 14.2 min. Further, in data set [2], the “λ MAX Vis (Band A)” value turned out to be 485 nm and the “λ MAX Vis (Band B)” value was determined as 618 nm. Also, in data set [3], the “Relative ΔOD at Saturation (rating)” value is listed as 103.
Take `CCC1(O)c2cc(OC)c(OC)cc2-c2c1c1c(c3cc(OC)c(OC)cc23)OC(c2ccc(OC)cc2)(c2ccc(OC)cc2)C=C1` (stereo not shown) [Example 3, 3,3-di(4-methoxyphenyl)-6,7,10,11-tetramethoxy-13-hydroxy-13-ethyl-3H,13H-indeno[2,1-f]naphtho[1,2-b]pyran]: in data set [1], the “ΔOD @ Saturation (Band A)” value is listed as 0.62, the “Sensitivity ΔOD/MIN (Band A)” value is recorded as 0.34 ΔOD/MIN, the “ΔOD @ Saturation (Band B)” value came out at 0.41 and the “Sensitivity ΔOD/MIN (Band B)” value was 0.24 ΔOD/MIN. In data set [1], the “Bleach Rate T 1/2” value stood at 2.58 min. For the same molecule, in data set [2], the “λ MAX Vis (Band A)” value was 460 nm and the “λ MAX Vis (Band B)” value amounted to 623 nm. In addition, the “Relative ΔOD at Saturation (rating)” value in data set [3] is 151.
Consider `COc1ccc(C2(c3ccc(OC)cc3)C=Cc3c4c(c5cc(OC)c(OC)cc5c3O2)-c2ccccc2C4(C)C)cc1` [Example 4, 3,3-di(4-methoxyphenyl)-6,7-dimethoxy-13,13-dimethyl-3H-13H-indeno[2,1-f]naphtho[1,2-b]pyran], for which, in data set [1], the “ΔOD @ Saturation (Band A)” value came out at 1.11, the “Sensitivity ΔOD/MIN (Band A)” value is 0.39 ΔOD/MIN, the “ΔOD @ Saturation (Band B)” value is listed as 0.71 and the “Sensitivity ΔOD/MIN (Band B)” value is recorded as 0.22 ΔOD/MIN. For the same molecule, the “Bleach Rate T 1/2” value in data set [1] came out at 4.45 min. In addition, in data set [2], the “λ MAX Vis (Band A)” value was determined as 455 nm and the “λ MAX Vis (Band B)” value was 576 nm. The “Relative ΔOD at Saturation (rating)” value in data set [3] amounted to 156.
Turning to `CCC1(O)c2ccccc2-c2c1c1c(c3cc(OC)c(OC)cc23)OC(c2ccc(OC)cc2)(c2ccc(OC)cc2)C=C1` (stereo not shown) [Example 5, 3,3-di(4-methoxyphenyl)-6,7-dimethoxy-13-hydroxy-13-ethyl-3H-13H-indeno[2,1-f]naphtho[1,2-b]pyran], in data set [1], the “ΔOD @ Saturation (Band A)” value worked out at 0.42, the “Sensitivity ΔOD/MIN (Band A)” value was 0.26 ΔOD/MIN, the “ΔOD @ Saturation (Band B)” value is 0.27 and the “Sensitivity ΔOD/MIN (Band B)” value is 0.19 ΔOD/MIN. Further, the “Bleach Rate T 1/2” value in data set [1] was determined as 1.45 min. In data set [2], the “λ MAX Vis (Band A)” value came to 458 nm and the “λ MAX Vis (Band B)” value is on record as 584 nm. In addition, the “Relative ΔOD at Saturation (rating)” value in data set [3] is reported as 155.
